Test results from PubChem BioAssay AID1963965 (Molecular Pharmacology Branch, DTP, NCI, 2024).
“And” between values parts separate entries of the source, which are not always exact repeats. Equal entries are not always repeated. Blank lines part the entries; values can stand above or below the compound they belong to.

Tested on: 996289-038-R-J1-PDC spheroid viability
Experiment: Anticancer human tumor 996289-038-R-J1-PDC patient-derived colon adenocarcinoma cell line growth inhibition [PI3K]
Details: spheroids with HUVEC and MSC; for viability, T/C: stronger effect = lower value
Procedure, shortened: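 Spheroid viability read-out. Co-cultures contained the tumor line plus HUVEC and human MSCs. Each agent was paired with a PI3K inhibitor (inavolisib, alpelisib, duvelisib, copanlisib) across half-log dilutions starting at clinical Cmax, or at 10 microM when Cmax was unknown.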

[1] = curve of first compound, second compound 0.00316 µM
[2] = curve of first compound, second compound 0.01 µM
[3] = curve of first compound, second compound 0.0316 µM
[4] = curve of first compound, second compound 0.1 µM
[5] = curve of first compound, second compound 0.316 µM
[6] = curve of first compound, second compound 1 µM
[7] = second compound 0.00316 µM, first compound 0.0316 µM
[8] = second compound 0.00316 µM, first compound 0.1 µM
[9] = second compound 0.00316 µM, first compound 0.316 µM
[10] = second compound 0.00316 µM, first compound 1 µM
[11] = second compound 0.00316 µM, first compound 3.16 µM
[12] = second compound 0.00316 µM, first compound 10 µM
[13] = second compound 0.01 µM, first compound 0.0316 µM
[14] = second compound 0.01 µM, first compound 0.1 µM
[15] = second compound 0.01 µM, first compound 0.316 µM
[16] = second compound 0.01 µM, first compound 1 µM
[17] = second compound 0.01 µM, first compound 3.16 µM
[18] = second compound 0.01 µM, first compound 10 µM
[19] = second compound 0.0316 µM, first compound 0.0316 µM
[20] = second compound 0.0316 µM, first compound 0.1 µM
[21] = second compound 0.0316 µM, first compound 0.316 µM
[22] = second compound 0.0316 µM, first compound 1 µM
[23] = second compound 0.0316 µM, first compound 3.16 µM
[24] = second compound 0.0316 µM, first compound 10 µM
[25] = second compound 0.1 µM, first compound 0.0316 µM
[26] = second compound 0.1 µM, first compound 0.1 µM
[27] = second compound 0.1 µM, first compound 0.316 µM
[28] = second compound 0.1 µM, first compound 1 µM
[29] = second compound 0.1 µM, first compound 3.16 µM
[30] = second compound 0.1 µM, first compound 10 µM
[31] = second compound 0.316 µM, first compound 0.0316 µM
[32] = second compound 0.316 µM, first compound 0.1 µM
[33] = second compound 0.316 µM, first compound 0.316 µM
[34] = second compound 0.316 µM, first compound 1 µM
[35] = second compound 0.316 µM, first compound 3.16 µM
[36] = second compound 0.316 µM, first compound 10 µM
[37] = second compound 1 µM, first compound 0.0316 µM
[38] = second compound 1 µM, first compound 0.1 µM
[39] = second compound 1 µM, first compound 0.316 µM
[40] = second compound 1 µM, first compound 1 µM
[41] = second compound 1 µM, first compound 3.16 µM
[42] = second compound 1 µM, first compound 10 µM
[43] = curve of first compound, second compound 3.16 µM
[44] = curve of first compound, second compound 10 µM
[45] = second compound 3.16 µM, first compound 0.0316 µM
[46] = second compound 3.16 µM, first compound 0.1 µM
[47] = second compound 3.16 µM, first compound 0.316 µM
[48] = second compound 3.16 µM, first compound 1 µM
[49] = second compound 3.16 µM, first compound 3.16 µM
[50] = second compound 3.16 µM, first compound 10 µM
[51] = second compound 10 µM, first compound 0.0316 µM
[52] = second compound 10 µM, first compound 0.1 µM
[53] = second compound 10 µM, first compound 0.316 µM
[54] = second compound 10 µM, first compound 1 µM
[55] = second compound 10 µM, first compound 3.16 µM
[56] = second compound 10 µM, first compound 10 µM
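Note: spheroids exposed to compounds for seven days before viability read.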
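Throughout, for viability, T/C: luminescence used as a proxy for viable cell amount; percent viability relative to DMSO vehicle control as 100%.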

IC50 [1]: 6.03 µM
IC50 [2]: 6.09 µM
IC50 [3]: 5.1 µM
IC50 [4]: 1.77 µM
IC50 [5]: < 0.0316 µM
IC50 [6]: < 0.0316 µM
Compound: CCCS(=O)(=O)Nc1ccc(F)c(C(=O)c2c[nH]c3ncc(-c4ccc(Cl)cc4)cc23)c1F + COc1c(OCCCN2CCOCC2)ccc2c3n(c(=NC(=O)c4cnc(N)nc4)nc12)CCN3
viability, T/C [7]: 98.9%
viability, T/C [8]: 81.6%
viability, T/C [9]: 94.6%
viability, T/C [10]: 108%
viability, T/C [11]: 87.5%
viability, T/C [12]: 19.9%
viability, T/C [13]: 96.4%
viability, T/C [14]: 92.6%
viability, T/C [15]: 87.4%
viability, T/C [16]: 85.7%
viability, T/C [17]: 90.6%
viability, T/C [18]: 19.4%
viability, T/C [19]: 71%
viability, T/C [20]: 78.2%
viability, T/C [21]: 72.5%
viability, T/C [22]: 80.2%
viability, T/C [23]: 71.1%
viability, T/C [24]: 19.8%
viability, T/C [25]: 63.5%
viability, T/C [26]: 49.7%
viability, T/C [27]: 66.9%
viability, T/C [28]: 53.4%
viability, T/C [29]: 44.4%
viability, T/C [30]: 12.2%
viability, T/C [31]: 32.3%
viability, T/C [32]: 42.4%
viability, T/C [33]: 35.9%
viability, T/C [34]: 36.7%
viability, T/C [35]: 26%
viability, T/C [36]: 8.03%
viability, T/C [37]: 19.9%
viability, T/C [38]: 22.4%
viability, T/C [39]: 20.2%
viability, T/C [40]: 15.9%
viability, T/C [41]: 14%
viability, T/C [42]: 6.42%

IC50 [3]: 9.68 µM
IC50 [4]: 4.61 µM
IC50 [5]: 2.74 µM
IC50 [6]: 1.39 µM
IC50 [43]: 0.659 µM
IC50 [44]: < 0.0316 µM
Compound: Cn1ncc(Cl)c1-c1cc(C(=O)NC(CN)Cc2cccc(F)c2)sc1Cl (centres undefined) + Cc1nc(NC(=O)N2CCCC2C(N)=O)sc1-c1ccnc(C(C)(C)C(F)(F)F)c1
viability, T/C [19]: 76.9%
viability, T/C [20]: 91.2%
viability, T/C [21]: 78.2%
viability, T/C [22]: 63.9%
viability, T/C [23]: 60%
viability, T/C [24]: 47.6%
viability, T/C [25]: 89.2%
viability, T/C [26]: 80.3%
viability, T/C [27]: 78.5%
viability, T/C [28]: 56%
viability, T/C [29]: 55.9%
viability, T/C [30]: 45.1%
viability, T/C [31]: 75.2%
viability, T/C [32]: 87.5%
viability, T/C [33]: 67.1%
viability, T/C [34]: 58%
viability, T/C [35]: 51.9%
viability, T/C [36]: 31.5%
viability, T/C [37]: 82.4%
viability, T/C [38]: 71.8%
viability, T/C [39]: 63.4%
viability, T/C [40]: 53.9%
viability, T/C [41]: 42.4%
viability, T/C [42]: 31.7%
viability, T/C [45]: 61%
viability, T/C [46]: 63.6%
viability, T/C [47]: 59.2%
viability, T/C [48]: 43.4%
viability, T/C [49]: 34.5%
viability, T/C [50]: 24.9%
viability, T/C [51]: 34.8%
viability, T/C [52]: 36.4%
viability, T/C [53]: 41.6%
viability, T/C [54]: 35.5%
viability, T/C [55]: 27.3%
viability, T/C [56]: 16.2%

IC50 [1]: > 10 µM
IC50 [2]: > 10 µM
IC50 [3]: > 10 µM
IC50 [4]: > 10 µM
IC50 [5]: < 0.0316 µM
IC50 [6]: < 0.0316 µM
Compound: C=CC(=O)N1CCN(c2nc(=O)n(-c3c(C)ccnc3C(C)C)c3nc(-c4c(O)cccc4F)c(F)cc23)C(C)C1 (centres undefined) + COc1c(OCCCN2CCOCC2)ccc2c3n(c(=NC(=O)c4cnc(N)nc4)nc12)CCN3
viability, T/C [7]: 99.8%
viability, T/C [8]: 99.1%
viability, T/C [9]: 118%
viability, T/C [10]: 129%
viability, T/C [11]: 137%
viability, T/C [12]: 104%
viability, T/C [13]: 99.8%
viability, T/C [14]: 92.7%
viability, T/C [15]: 108%
viability, T/C [16]: 99.9%
viability, T/C [17]: 106%
viability, T/C [18]: 109%
viability, T/C [19]: 82.6%
viability, T/C [20]: 88.3%
viability, T/C [21]: 85.4%
viability, T/C [22]: 81.5%
viability, T/C [23]: 90.7%
viability, T/C [24]: 85.6%
viability, T/C [25]: 60.7%
viability, T/C [26]: 52.7%
viability, T/C [27]: 62.5%
viability, T/C [28]: 74.3%
viability, T/C [29]: 70.8%
viability, T/C [30]: 71.9%
viability, T/C [31]: 37.7%
viability, T/C [32]: 42.5%
viability, T/C [33]: 38.2%
viability, T/C [34]: 42%
viability, T/C [35]: 48.2%
viability, T/C [36]: 40.5%
viability, T/C [37]: 21%
viability, T/C [38]: 22.6%
viability, T/C [39]: 20.4%
viability, T/C [40]: 22%
viability, T/C [41]: 23.3%
viability, T/C [42]: 20.7%

IC50 (curve of compound): > 0.1 µM
Compound: CC(=O)c1c(C)c2cnc(Nc3ccc(N4CCNCC4)cn3)nc2n(C2CCCC2)c1=O
viability, T/C (compound 0.000316 µM): 104% [middle of 4 runs]
viability, T/C (compound 0.001 µM): 96.8% [middle of 4 runs]
viability, T/C (compound 0.01 µM): 95.5% [middle of 4 runs]
viability, T/C (compound 0.0316 µM): 96% and 101% (2×) and 91.4%
viability, T/C (compound 0.1 µM): 87.6% [middle of 4 runs]

IC50 [3]: > 10 µM
IC50 [4]: > 10 µM
IC50 [5]: > 10 µM
IC50 [6]: > 10 µM
IC50 [43]: 9.57 µM
IC50 [44]: > 10 µM
Compound: CC1(C)CCC(CN2CCN(c3ccc(C(=O)NS(=O)(=O)c4ccc(NCC5CCOCC5)c([N+](=O)[O-])c4)c(Oc4cnc5[nH]ccc5c4)c3)CC2)=C(c2ccc(Cl)cc2)C1 + CC(Nc1ncnc2nc[nH]c12)c1cc2cccc(Cl)c2c(=O)n1-c1ccccc1
viability, T/C [19]: 105%
viability, T/C [20]: 86.3%
viability, T/C [21]: 106%
viability, T/C [22]: 103%
viability, T/C [23]: 114%
viability, T/C [24]: 65%
viability, T/C [25]: 108%
viability, T/C [26]: 96.9%
viability, T/C [27]: 99.4%
viability, T/C [28]: 119%
viability, T/C [29]: 128%
viability, T/C [30]: 67%
viability, T/C [31]: 111%
viability, T/C [32]: 96.3%
viability, T/C [33]: 104%
viability, T/C [34]: 101%
viability, T/C [35]: 112%
viability, T/C [36]: 60.9%
viability, T/C [37]: 102%
viability, T/C [38]: 88.7%
viability, T/C [39]: 103%
viability, T/C [40]: 114%
viability, T/C [41]: 124%
viability, T/C [42]: 63.1%
viability, T/C [45]: 109%
viability, T/C [46]: 92.3%
viability, T/C [47]: 102%
viability, T/C [48]: 107%
viability, T/C [49]: 112%
viability, T/C [50]: 47.7%
viability, T/C [51]: 88.4%
viability, T/C [52]: 88.9%
viability, T/C [53]: 85.7%
viability, T/C [54]: 102%
viability, T/C [55]: 108%
viability, T/C [56]: 54.6%
